Tests used:
[1] = molecular target: T1, Synaptic vesicular amine transporter (Rattus norvegicus, UniProt Q01827); assay: Inhibition of [3H]DA uptake at VMAT2 in rat striatal synaptic vesicles
[2] = molecular target: T1, Synaptic vesicular amine transporter; assay: Inhibition of [3H]DTBZ binding to VMAT2 in rat synaptic vesicle membranes; type: cell membranes

T1 sequence (Q01827 whole entry): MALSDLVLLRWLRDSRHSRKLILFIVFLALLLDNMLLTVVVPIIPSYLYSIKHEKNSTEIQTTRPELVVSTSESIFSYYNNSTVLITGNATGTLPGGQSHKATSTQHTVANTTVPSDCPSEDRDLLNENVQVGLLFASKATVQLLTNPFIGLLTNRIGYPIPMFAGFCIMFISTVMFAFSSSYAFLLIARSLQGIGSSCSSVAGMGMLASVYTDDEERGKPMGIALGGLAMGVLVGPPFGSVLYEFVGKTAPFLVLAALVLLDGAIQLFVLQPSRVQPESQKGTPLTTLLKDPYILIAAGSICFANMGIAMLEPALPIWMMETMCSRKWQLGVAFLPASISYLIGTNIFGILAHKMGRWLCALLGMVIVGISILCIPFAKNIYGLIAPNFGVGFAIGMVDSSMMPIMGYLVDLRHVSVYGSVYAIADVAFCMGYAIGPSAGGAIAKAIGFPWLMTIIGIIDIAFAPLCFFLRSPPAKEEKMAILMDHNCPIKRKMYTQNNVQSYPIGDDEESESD

Structure (SMILES)	Ki [1]	Ki [2]
OCCN1[C@@H](CCc2ccccc2)CCC[C@H]1CCc1ccccc1	170 nM	1430 nM
COc1ccc(F)c(CC[C@H]2CCC[C@@H](CCc3cc(OC)ccc3F)N2)c1	39 nM	930 nM
COc1ccc(F)c(CC[C@H]2CCC[C@@H](CCc3cc(OC)ccc3F)N2C[C@@H](O)CO)c1	160 nM	210 nM
c1ccc(CC[C@H]2CCC[C@@H](CCc3ccccc3)N2)cc1	44 nM	
CCCN1[C@@H](CCc2ccccc2)CCC[C@H]1CCc1ccccc1	87 nM	
CN(C)N1[C@@H](CCc2ccccc2)CCC[C@H]1CCc1ccccc1	54 nM	> 100000 nM
OC[C@@H](O)CN1[C@@H](CCc2cccc(F)c2)CCC[C@H]1CCc1cccc(F)c1	1030 nM	1080 nM
CCN1[C@@H](CCc2ccccc2)CCC[C@H]1CCc1ccccc1	60 nM	
OC[C@@H](O)CN1[C@@H](CCc2ccc(Cl)cc2Cl)CCC[C@H]1CCc1ccc(Cl)cc1Cl	90 nM	13900 nM
OC[C@H](O)CN1[C@@H](CCc2ccc(OC(F)F)cc2)CCC[C@H]1CCc1ccc(OC(F)F)cc1	60 nM	530 nM
OC[C@@H](O)CN1[C@@H](CCc2cccc3ccccc23)CCC[C@H]1CCc1cccc2ccccc12	80 nM	130 nM
OC[C@H](O)CN1[C@@H](CCc2ccc(Cl)cc2Cl)CCC[C@H]1CCc1ccc(Cl)cc1Cl	140 nM	10400 nM
N=C(N)NCCN1[C@@H](CCc2ccccc2)CCC[C@H]1CCc1ccccc1	680 nM	3490 nM
COc1cccc(CC[C@H]2CCC[C@@H](CCc3cccc(OC)c3)N2C[C@@H](O)CO)c1	140 nM	460 nM
NCCN1[C@@H](CCc2ccccc2)CCC[C@H]1CCc1ccccc1	510 nM	5590 nM
OC[C@H](O)CN1[C@@H](CCc2ccc(-c3ccccc3)cc2)CCC[C@H]1CCc1ccc(-c2ccccc2)cc1	790 nM	> 100000 nM

Second part, the molecule after the results:

Ki [1]	Ki [2]	Structure (SMILES)
340 nM	4400 nM	COC(=O)CN1[C@@H](CCc2ccccc2)CCC[C@H]1CCc1ccccc1
2250 nM	90200 nM	OC[C@@H](O)CN1[C@@H](CCc2ccc(-c3ccccc3)cc2)CCC[C@H]1CCc1ccc(-c2ccccc2)cc1
160 nM	1300 nM	OC[C@H](O)CN1[C@@H](CCc2ccc3c(c2)OCO3)CCC[C@H]1CCc1ccc2c(c1)OCO2
23 nM	1750 nM	FC(F)Oc1ccc(CC[C@H]2CCC[C@@H](CCc3ccc(OC(F)F)cc3)N2)cc1
760 nM	5610 nM	OC[C@@H](O)CN1[C@@H](CCc2ccc3c(c2)OCO3)CCC[C@H]1CCc1ccc2c(c1)OCO2
43 nM	5240 nM	Fc1cc(F)cc(CC[C@H]2CCC[C@@H](CCc3cc(F)cc(F)c3)N2)c1
520 nM	2730 nM	COc1cccc(CC[C@H]2CCC[C@@H](CCc3cccc(OC)c3)N2C[C@H](O)CO)c1
30 nM	310 nM	OC[C@H](O)CN1[C@@H](CCc2cccc3ccccc23)CCC[C@H]1CCc1cccc2ccccc12
180 nM	9590 nM	CN(C)CCN1[C@@H](CCc2ccccc2)CCC[C@H]1CCc1ccccc1
190 nM	1000 nM	OC[C@H](O)CN1[C@@H](CCc2cccc(F)c2)CCC[C@H]1CCc1cccc(F)c1
104 nM	620 nM	OC[C@H](O)CN1[C@@H](CCc2cc(F)cc(F)c2)CCC[C@H]1CCc1cc(F)cc(F)c1
190 nM	560 nM	OC[C@H](O)CN1[C@@H](CCc2ccccc2)CCC[C@H]1CCc1ccccc1
790 nM	1870 nM	COc1ccccc1CC[C@H]1CCC[C@@H](CCc2ccccc2OC)N1C[C@H](O)CO
48 nM	13100 nM	COc1ccc(C[C@H]2CCC[C@@H](Cc3ccc(OC)cc3)N2)cc1
570 nM	91000 nM	COc1ccc(C[C@H]2CCC[C@@H](Cc3ccc(OC)cc3)N2C[C@@H](O)CO)cc1
860 nM	1280 nM	OC[C@@H](O)CN1[C@@H](CCc2ccccc2)CCC[C@H]1CCc1ccccc1
490 nM	1040 nM	COc1ccccc1CC[C@H]1CCC[C@@H](CCc2ccccc2OC)N1C[C@@H](O)CO
4490 nM	22600 nM	N#CCN1[C@@H](CCc2ccccc2)CCC[C@H]1CCc1ccccc1
